The target in experiment [1] is T1, BACE (Homo sapiens, UniProt P56817).
T1 construct: Cells stably expressing Amyloid Precursor Protein (APP) were plated at a density of 40K cells/well in 96 well plates; endogenous in cells
Kind of experiment: In vitro enzymatic BACE FRET assay (Enzyme Assay). The experiment is classed as biochemical. The settings on record: pH 4.2, enzyme 0.2 nM, FRET substrate 50 nM. The method, then:
In Vitro Enzymatic BACE FRET (Fluorescence Resonance Energy Transfer) Assay (Enzyme Assay)
Assay buffer is 0.05 M acetate, pH 4.2, 10% DMSO final, 100 uM genapol (which is a nonionic detergent, below it's Critical Micelle Concentration). Enzyme (0.2 nM) is pre-incubated for one hour with inhibitors added in 1 uL of DMSO. Then the assay is started by the addition of FRET substrate (50 nM) and incubated for one hour. The FRET assay is terminated with by addition of Tris buffer, which raises the pH to neutrality, and the fluorescence is determined The FRET substrate is a peptide with commercially available fluorophore and quencher, on opposite sides of the BACE cleavage site. Proteolytic cleavage of the FRET substrate releases quenching of fluorescence (excitation 488 nm and […]).

The target in experiment [2] is T1, BACE. Kind of experiment: BACE cell-based assay (Cell Assay), inhibition of Aβ40 by sandwich ELISA. As to conditions: Aβ40 in conditioned medium of cells stably expressing APP, 24 h incubation. The method, then: BACE Cell-Based Assay (Cell Assay)
The cell-based assay measures inhibition or reduction of Aβ40 in conditioned medium of test compound treated cells expressing amyloid precursor protein.
Cells stably expressing Amyloid Precursor Protein (APP) were plated at a density of 40K cells/well in 96 well plates (Costar). The cells were cultivated for 24 hours at 37° C. and 5% CO2 in DMEM supplemented with 10% FBS. The test compounds were then added to cells in 10-point dose response concentrations with the starting concentration being either 100 μM or 10 μM. The compounds were diluted from stock solutions in DMSO and the final DMSO concentration of the test compounds on cells was 0.1%. After 24 h of incubation with the test compounds the supernatant conditioned media was collected and the Aβ40 levels were determined using a sandwich ELISA. The IC50 of the compound was calculated from the percent of control or percent inhibition of Aβ40 as a function of the concentration of the test compound.
The sandwich ELISA to detect Aβ40 was performed in 96 well microtiter plates, which were pre-treated with goat anti-rabbit IgG (Pierce). The capture and detecting antibody pair that were used to detect Aβ40 from cell supernatants were affinity purified pAb40 (Biosource) and biotinylated 6E10 (Signet Labs Inc.), respectively. The optimal concentration for the pAb40 antibody was 3 μg/ml in Superblock/TBS (Pierce) that was supplemented with 0.05% Tween 20 (Sigma). Optimal concentration for the detection antibody 6E10-biotinylated was 0.5 μg/ml in Superblock/TBS (Pierce) that had been supplemented with 2% normal goat serum and 2% normal mouse serum.
Cellular supernatants were incubated with the capture antibody for 3 h at 4° C., followed by 3 wash steps in TBS-tween (0.05%). The detecting antibody incubation was for 2 h at 4° C., again followed by the wash steps as described previously. The final readout of the ELISA is Time-Resolved Fluorescence (counts per minute) using Delfia reagents Streptavidin-Europium and Enhancement solutions (Perkin Elmer) and the Victor 2 multilabel counter (Perkin Elmer).

pIC50: −log10 of the molar value.

Among the data in patent publication US7951838B2, “Substituted spirocyclic chromanamine compounds as Beta-Secretase modulators and methods of use” (Amgen Inc., priority 2007, dated 2011) are IC50 values, retold here.

T1 sequence (P56817 46-501): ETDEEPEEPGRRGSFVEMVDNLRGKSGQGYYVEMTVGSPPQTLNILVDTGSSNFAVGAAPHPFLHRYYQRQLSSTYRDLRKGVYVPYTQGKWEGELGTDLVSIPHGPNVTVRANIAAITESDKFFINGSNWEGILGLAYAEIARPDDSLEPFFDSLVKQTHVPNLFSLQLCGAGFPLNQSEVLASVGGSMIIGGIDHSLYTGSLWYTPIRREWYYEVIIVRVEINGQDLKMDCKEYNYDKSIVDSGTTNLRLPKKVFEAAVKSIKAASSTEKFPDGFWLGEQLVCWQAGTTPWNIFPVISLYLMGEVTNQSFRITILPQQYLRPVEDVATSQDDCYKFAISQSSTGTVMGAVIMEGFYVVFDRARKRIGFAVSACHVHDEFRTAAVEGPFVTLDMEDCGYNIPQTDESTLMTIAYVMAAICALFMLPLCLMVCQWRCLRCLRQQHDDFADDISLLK

Turning to `CC(C)(C)Cc1cnc2c(c1)[C@@H](NC[C@@H](O)[C@H](Cc1cc(F)cc(F)c1)Nc1ccnc(Cl)n1)CC1(CCC1)O2` [Example 24, (2R,3S)-3-((2-chloro-4-pyrimidinyl)amino)-4-(3,5-difluorophenyl)-1-(((4′S)-6′-(2,2-dimethylpropyl)-3′,4′-dihydrospiro[cyclobutane-1,2′-pyrano[2,3-b]pyridin]-4′-yl)amino)-2-butanol], the pIC50 is > 7.00 at BACE [1] and 6.00 to 7.00 against BACE [2].

Consider `CC(C)(C)Cc1cnc2c(c1)[C@@H](NC[C@@H](O)[C@H](Cc1cc(F)cc(F)c1)Nc1nccn3cnnc13)CC1(CCC1)O2` [Example 21, (2R,3S)-4-(3,5-difluorophenyl)-1-(((4′S)-6′-(2,2-dimethylpropyl)-3′,4′-dihydrospiro[cyclobutane-1,2′-pyrano[2,3-b]pyridin]-4′-yl)amino)-3-([1,2,4]triazolo[4,3-a]pyrazin-8-ylamino)-2-butanol], for which the pIC50 against BACE [1] is 6.00 to 7.00; against BACE [2], > 7.00.

In turn, `CCc1ccc2c(c1)[C@@H](NC[C@@H](O)[C@H](Cc1ccccc1)Nc1ccncc1)CC1(CCC1)O2` [Example 44, (2R,3S)-1-(((4S)-6-ethyl-3,4-dihydrospiro[chromene-2,1′-cyclobutan]-4-yl)amino)-4-phenyl-3-(4-pyridinylamino)-2-butanol] had a pIC50 against BACE [2] of 5.30 to 6.00.

`CCc1ccc2c(c1)[C@@H](NC[C@@H](O)[C@H](Cc1ccccc1)Nc1nc3ccccc3s1)CC1(CCC1)O2` [Example 42, (2R,3S)-3-(1,3-benzothiazol-2-ylamino)-1-(((4S)-6-ethyl-3,4-dihydrospiro[chromene-2,1′-cyclobutan]-4-yl)amino)-4-phenyl-2-butanol] gave a pIC50 at BACE [1] of 4.60 to 5.00.

For the compound `CCOc1c(N[C@@H](Cc2cccc(F)c2)[C@H](O)CN[C@H]2CC3(CCC3)Oc3ncc(CC(C)(C)C)cc32)c(=O)c1=O` [Example 45, 3-(((1S,2R)-3-(((4′S)-6′-(2,2-dimethylpropyl)-3′,4′-dihydrospiro[cyclobutane-1,2′-pyrano[2,3-b]pyridin]-4′-yl)amino)-1-((3-fluorophenyl)methyl)-2-hydroxypropyl)amino)-4-(ethyloxy)-3-cyclobutene-1,2-dione], the pIC50 was > 7.00 at BACE [1] and 6.00 to 7.00 at BACE [2].

Turning to `CSc1nc(Cl)cc(N[C@@H](Cc2ccc(F)cc2)[C@H](O)CN[C@H]2CC3(CCC3)Oc3ncc(CC(C)(C)C)cc32)n1` [Example 34, (2R,3S)-3-((6-chloro-2-(methylthio)-4-pyrimidinyl)amino)-1-(((4′S)-6′-(2,2-dimethylpropyl)-3′,4′-dihydrospiro[cyclobutane-1,2′-pyrano[2,3-b]pyridin]-4′-yl)amino)-4-(4-fluorophenyl)-2-butanol], the pIC50 at BACE [1] was 5.00 to 5.30; against BACE [2], 4.60 to 5.00.

As to `CCc1ccc2c(c1)[C@@H](NC[C@@H](O)[C@H](Cc1ccccc1)Nc1ccc(Cl)nn1)CC1(CCC1)O2` [Example 39, (2R,3S)-3-((6-chloro-3-pyridazinyl)amino)-1-(((4S)-6-ethyl-3,4-dihydrospiro[chromene-2,1′-cyclobutan]-4-yl)amino)-4-phenyl-2-butanol], the pIC50 on BACE [1] and on BACE [2] was 4.60 to 5.00 in each case.

Turning to `CCc1ccc2c(c1)[C@@H](NC[C@@H](O)[C@H](Cc1ccccc1)Nc1cnccn1)CC1(CCCC1)O2` [Example 40, (2R,3S)-1-(((4S)-6-ethyl-3,4-dihydrospiro[chromene-2,1′-cyclopentan]-4-yl)amino)-4-phenyl-3-(2-pyrazinylamino)-2-butanol], the pIC50 on BACE [2] was 4.60 to 5.00.

For the compound `CCc1ccc2c(c1)[C@@H](NC[C@@H](O)[C@H](Cc1ccccc1)Nc1nccc(CC)n1)CC1(CCC1)O2` [Example 37, (2R,3S)-1-((S)-6-ethyl-2,2-spirocyclobutyl-chroman-4-ylamino)-4-phenyl-3-(4-ethylpyrimidin-2-ylamino)butan-2-ol], the results for the pIC50 at BACE [1] and at BACE [2] were 4.60 to 5.00 and 5.00 to 5.30, respectively.

For the compound `CC(C)(C)Cc1cnc2c(c1)[C@@H](NC[C@@H](O)[C@H](Cc1cc(F)cc(F)c1)Nc1ncccn1)CC1(CCC1)O2` [Example 25, (2R,3S)-4-(3,5-difluorophenyl)-1-(((4′S)-6′-(2,2-dimethylpropyl)-3′,4′-dihydrospiro[cyclobutane-1,2′-pyrano[2,3-b]pyridin]-4′-yl)amino)-3-(2-pyrimidinylamino)-2-butanol], the figures for the negative logarithm of the IC50 (pIC50) on BACE [1] and at BACE [2] were 6.00 to 7.00 and 5.30 to 6.00, respectively.

With `CCc1ccc2c(c1)[C@@H](NC[C@@H](O)[C@H](Cc1ccccc1)Nc1ccccc1F)CC1(CCCC1)O2` [Example 32, (2R,3S)-1-(((4S)-6-ethyl-3,4-dihydrospiro[chromene-2,1′-cyclopentan]-4-yl)amino)-3-((2-fluorophenyl)amino)-4-phenyl-2-butanol], the negative logarithm of the IC50 (pIC50) against BACE [1] is 5.00 to 5.30; on BACE [2], 4.60 to 5.00.

For `CC(C)(C)Cc1cnc2c(c1)[C@@H](NC[C@@H](O)[C@H](Cc1ccc(F)cc1)Nc1ncnc3ccsc13)CC1(CCC1)O2` [Example 30, (2R,3S)-1-(((4′S)-6′-(2,2-dimethylpropyl)-3′,4′-dihydrospiro[cyclobutane-1,2′-pyrano[2,3-b]pyridin]-4′-yl)amino)-4-(4-fluorophenyl)-3-(thieno[3,2-d]pyrimidin-4-ylamino)-2-butanol], the pIC50 is 5.00 to 5.30 against BACE [1] and 4.60 to 5.00 at BACE [2].

Take `CCc1ccc2c(c1)[C@@H](NC[C@@H](O)[C@H](Cc1ccccc1)Nc1cccnc1)CC1(CCC1)O2` [Example 43, (2R,3S)-1-(((4S)-6-ethyl-3,4-dihydrospiro[chromene-2,1′-cyclobutan]-4-yl)amino)-4-phenyl-3-(3-pyridinylamino)-2-butanol]: the pIC50 against BACE [1] and on BACE [2] was 4.60 to 5.00 throughout.

Take `CCc1ccc2c(c1)[C@@H](NC[C@@H](O)[C@H](Cc1cccc(C#N)c1)Nc1ccccc1F)CC1(CCC1)O2` [Example 27, 3-((2S,3R)-4-(((4S)-6-ethyl-3,4-dihydrospiro[chromene-2,1′-cyclobutan]-4-yl)amino)-2-((2-fluorophenyl)amino)-3-hydroxybutyl)benzonitrile]: the pIC50 was 5.30 to 6.00 against BACE [1] and 6.00 to 7.00 on BACE [2].

In the case of `CCc1ccc2c(c1)[C@@H](NC[C@@H](O)[C@H](Cc1ccccc1)Nc1ncccn1)CC1(CCC1)O2` [Example 38, (2R,3S)-1-((S)-6-ethyl-2,2-spirocyclobutyl-chroman-4-ylamino)-4-phenyl-3-(pyrimidin-2-ylamino)butan-2-ol], the negative logarithm of the IC50 (pIC50) at BACE [1] and against BACE [2] was 4.60 to 5.00 in each case.

In the case of `CC(C)(C)Cc1cnc2c(c1)[C@@H](NC[C@@H](O)[C@H](Cc1ccc(F)cc1)Nc1ccnc(Cl)n1)CC1(CCC1)O2` [Example 29, (2R,3S)-3-((2-chloro-4-pyrimidinyl)amino)-1-(((4′S)-6′-(2,2-dimethylpropyl)-3′,4′-dihydrospiro[cyclobutane-1,2′-pyrano[2,3-b]pyridin]-4′-yl)amino)-4-(4-fluorophenyl)-2-butanol], the pIC50 against BACE [1] was 5.30 to 6.00; against BACE [2] it was 4.60 to 5.00.

For `O[C@H](CN[C@H]1CC2(CCC2)Oc2ccc(Br)cc21)[C@H](Cc1ccccc1)Nc1nccn2cnnc12` [Example 22, (2R,3S)-1-(((4S)-6-bromo-3,4-dihydrospiro[chromene-2,1′-cyclobutan]-4-yl)amino)-4-phenyl-3-([1,2,4]triazolo[4,3-a]pyrazin-8-ylamino)-2-butanol], the negative logarithm of the IC50 (pIC50) was 4.60 to 5.00 on BACE [1] and 5.00 to 5.30 against BACE [2].

For `CCc1ccc2c(c1)[C@@H](NC[C@@H](O)[C@H](Cc1ccccc1)Nc1ccccc1F)CC1(CCC1)O2` [Example 31, (2R,3S)-1-(((4S)-6-ethyl-3,4-dihydrospiro[chromene-2,1′-cyclobutan]-4-yl)amino)-3-((2-fluorophenyl)amino)-4-phenyl-2-butanol], the pIC50 was 5.00 to 5.30 against BACE [1] and 4.60 to 5.00 against BACE [2].

On to `CCc1ccc2c(c1)[C@@H](NC[C@@H](O)[C@H](Cc1ccccc1)Nc1nccc(C(F)(F)F)n1)CC1(CCC1)O2` [Example 33, (2R,3S)-1-((S)-6-ethyl-2,2-spirocyclobutyl-chroman-4-ylamino)-4-phenyl-3-(4-(trifluoromethyl)pyrimidin-2-ylamino)butan-2-ol], for which the pIC50 on BACE [1] and against BACE [2] was 4.60 to 5.00 each time.

For orientation: pIC50 means the IC50 on a negative log10 scale, so that one unit is a factor of ten. A low value points to a high IC50.
